Key:
Type in all cases: cell-based
Human LPA1 [1] = biological target: T1, Human LPA1 (Homo sapiens, UniProt Q92633); experiment: Beta-Arrestin based assay for human LPA1R antagonists (PathHunter); set-up: host or cells: CHO; details: CHO cells stably expressing ProLink tagged human LPA1R; agonist LPA 0.5 micromolar
How it was run: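 CHO cells stably expressing ProLink-tagged human LPA1R with β-arrestin–EA fusion, assayed by β-galactosidase complementation. Antagonists tested against 0.5 micromolar LPA ([…]), in quadruplicate. End-point luminescence fitted to a 4-parameter logistic to give IC50.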

Human LPA3 = biological target: T2, Human LPA3 (Homo sapiens, UniProt Q9UBY5); experiment: LPA3 calcium flux assay; details: human LPA3 expressing CHO cells; stimulated with 10 nM LPA; read-out: Ca Flux LPA3 IC50
T2 construct: The full-length cDNA fragment for human LPA3 is obtained by PCR from the vector; expressed in transfected cells; host or cells: CHO
T2 sequence (Q9UBY5 1-353): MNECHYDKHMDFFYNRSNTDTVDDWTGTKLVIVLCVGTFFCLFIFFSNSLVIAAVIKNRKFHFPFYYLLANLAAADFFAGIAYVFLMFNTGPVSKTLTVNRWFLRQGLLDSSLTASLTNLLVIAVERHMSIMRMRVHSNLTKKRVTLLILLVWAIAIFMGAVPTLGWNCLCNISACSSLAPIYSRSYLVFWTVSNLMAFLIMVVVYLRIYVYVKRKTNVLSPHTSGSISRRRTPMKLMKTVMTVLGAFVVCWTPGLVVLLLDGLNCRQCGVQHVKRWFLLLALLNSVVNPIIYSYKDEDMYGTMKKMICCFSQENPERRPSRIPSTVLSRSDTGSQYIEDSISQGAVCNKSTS
Protocol: Establishment of a CHO Cell Line Stably Expressing Human LPA3
A vector containing the human LPA3 receptor cDNA is obtained from the Missouri S&T cDNA Resource Center (www.cdna.org). The full-length cDNA fragment for human LPA3 is obtained by PCR from the vector. The nucleotide sequence of the cloned human LPA3 is determined by sequencing and is confirmed to be identical to the published human LPA3 sequence (NCBI accession number NM_012152). The cDNA is cloned into the pcDNA5 pcDNA5/FRT expression plasmid and is transfected in CHO cells using lipofectamine 2000 (Invitrogen Corp., USA). Clones stably expressing human LPA3 are selected using hygromycin and identified as cells that show Ca-influx in response to LPA.
(§1) LPA1 and LPA3 Calcium Flux Assays
(§2) Human LPA1 or LPA3 expressing CHO cells were seeded at 20,000-45,000 cells per well in a 96-well poly-D-lysine coated plate one or two days before the assay. Prior to the assay, the cells were washed once with PBS and then cultured in serum-free media overnight. On the day of the assay, a calcium indicator dye (Calcium 4, Molecular Devices) in assay buffer (HBSS with Ca^2+ and Mg^2+ and containing 20 mM Hepes and 0.3% fatty-acid free human serum albumin) was added to each well and incubation continued for 1 hour at 37° C. 10 μl of test compounds in 2.5% DMSO were added to the cells and incubation continued at room temperature for 30 minutes. Cells were then stimulated by the addition of 10 nM LPA and intracellular Ca^2+ measured using the Flexstation 3 (Molecular Devices). IC50s were determined using Graphpad prism analysis of drug titration curves.

Human LPA1 [2] = biological target: T1, Human LPA1; experiment: LPA1 calcium flux assay; set-up: the full-length cDNA for human LPA1 is obtained by PCR of the reverse transcription reaction; expressed in transfected cells; host or cells: CHO; details: human LPA1 expressing CHO cells; stimulated with 10 nM LPA; read-out: Ca Flux LPA1 IC50
Protocol: Establishment of a CHO Cell Line Stably Expressing Human LPA1
A 1.1 kb cDNA encoding the human LPA1 receptor is cloned from human lung. Human lung RNA (Clontech Laboratories, Inc. USA) is reverse transcribed using the RETROscript kit (Ambion, Inc.) and the full-length cDNA for human LPA1 is obtained by PCR of the reverse transcription reaction. The nucleotide sequence of the cloned human LPA1 is determined by sequencing and is confirmed to be identical to the published human LPA1 sequence (An et al. Biochem. Biophys. Res. Commun. 231:619 (1997). The cDNA is cloned into the pcDNA5 pcDNA5/FRT expression plasmid and is transfected in CHO cells using lipofectamine 2000 (Invitrogen Corp., USA). Clones stably expressing human LPA1 are selected using hygromycin and identified as cells that show Ca-influx in response to LPA.
as §1, §2

T1 sequence (Q92633 whole entry, the tested form may be a part): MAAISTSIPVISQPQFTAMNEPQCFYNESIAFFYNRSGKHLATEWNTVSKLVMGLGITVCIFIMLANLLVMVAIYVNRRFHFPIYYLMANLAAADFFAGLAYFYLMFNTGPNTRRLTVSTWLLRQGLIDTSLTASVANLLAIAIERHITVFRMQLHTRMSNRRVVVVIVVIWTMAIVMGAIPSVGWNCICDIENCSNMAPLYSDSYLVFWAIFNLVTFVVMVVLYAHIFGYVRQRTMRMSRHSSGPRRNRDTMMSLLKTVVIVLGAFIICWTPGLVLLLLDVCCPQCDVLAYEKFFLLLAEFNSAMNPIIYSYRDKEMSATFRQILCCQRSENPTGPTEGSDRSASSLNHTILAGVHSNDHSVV

| EC50 (Human LPA1 [1]) | IC50 (Human LPA3) | IC50 (Human LPA1 [2]) | Compound |
| --- | --- | --- | --- |
| < 50 nM | > 500 nM | > 500 nM | C[C@@H](OC(=O)Nc1c(-c2ccc(-c3ccc(C4(C(=O)O)CC4)cc3)cc2)oc2ncccc12)c1ccccc1Cl [Compound 153] |
| 50 to 500 nM | > 500 nM | < 50 nM | Cc1nsc(-c2ccc(-c3ccc(CC(=O)O)cc3)cc2)c1NC(=O)O[C@H](C)c1ccccc1Cl [Compound 20] |
| < 50 nM | 50 to 500 nM | 50 to 500 nM | Cc1noc(-c2ccc(-c3ccc(CC(=O)O)c4ccccc34)cc2)c1NC(=O)O[C@H](C)c1ccccc1Cl [Compound 6] |
| < 50 nM | > 500 nM | < 50 nM | C[C@@H](OC(=O)Nc1c(-c2ccc(-c3ccc(C4(C(=O)O)CC4)cc3)cc2)cnn1C)c1ccccc1 [Compound 170] |
| < 50 nM | 50 to 500 nM | 50 to 500 nM | C[C@@H](OC(=O)Nc1c(-c2ccc(-c3ccc(C4(C(=O)O)CC4)cc3)cc2)oc2ncccc12)c1ccccc1 [Compound 152] |
| < 50 nM | > 500 nM | 50 to 500 nM | C[C@@H](OC(=O)Nc1c(-c2ccc(-c3ccc(C4(C(=O)O)CC4)cc3)cc2)oc2cnccc12)c1ccccc1Cl [Compound 149] |
| < 50 nM | > 500 nM | < 50 nM | Cc1noc(-c2ccc(-c3ccc(C4(C(=O)O)CC4)cc3)cc2)c1NC(=O)O[C@H](C)c1ccccc1 [Compound 74] |

From patent US8975235B2, “Lysophosphatidic acid receptor antagonists” (InterMune, Inc., priority 2011, dated 2015)
